What all share (format): functional
Assay [1] is described as follows: Herbicidal activity against annual broad-leaf weeds assessed as killing at 1 g/a at 25 degC measured after 3 weeks.
Assay [2] in a line: Herbicidal activity against annual broad-leaf weeds assessed as killing at 10 g/a at 25 degC measured after 3 weeks.
Assay [3] has as its system Pontederia vaginalis. The experiment in a line: Herbicidal activity against Monochoria vaginalis assessed as killing at 1 g/a at 25 degC measured after 3 weeks.
The test system of assay [4] is Pontederia vaginalis. The experiment in a line: Herbicidal activity against Monochoria vaginalis assessed as killing at 10 g/a at 25 degC measured after 3 weeks.
For assay [5], the system named is Schoenoplectiella juncoides. The experiment in a line: Herbicidal activity against Schoenoplectiella juncoides assessed as killing at 1 g/a at 25 degC measured after 3 weeks.
Assay [6] relates to Schoenoplectiella juncoides. The experiment in a line: Herbicidal activity against Schoenoplectiella juncoides assessed as killing at 10 g/a at 25 degC measured after 3 weeks.
In assay [7] the test system is Cyperus difformis. The experiment in a line: Herbicidal activity against Cyperus difformis assessed as killing at 1 g/a at 25 degC measured after 3 weeks.
The test system of assay [8] is Cyperus difformis. The experiment in a line: Herbicidal activity against Cyperus difformis assessed as killing at 10 g/a at 25 degC measured after 3 weeks.
Assay [9] has as its system Echinochloa oryzicola. The experiment in a line: Herbicidal activity against Echinochloa oryzicola assessed as killing at 1 g/a at 25 degC measured after 3 weeks.
Assay [10] has as its system Echinochloa oryzicola. The experiment in a line: Herbicidal activity against Echinochloa oryzicola assessed as killing at 10 g/a at 25 degC measured after 3 weeks.

SMILES strings stand for the structures.

Take `CCC=C(c1ccccc1)N(CCOC)C(=O)CCl`: the Activity came out at 0% in assay [1]; 80% in [2]; 0% in [3]; 100% in assay [4]; 0% in assay [5]; 100% in assay [6]. Also, the Activity is on record as 80% in [7], 100% in [8], 60% in [9] and 100% in assay [10].
In the case of `COCCN(C(=O)CCl)C(=C(C)C)c1cccc(Oc2ccc(Cl)cc2)c1`, the Activity in assay [2] amounted to 100%; in assay [4], 100%; in assay [6] it was 80%; in [8], 100%; in [10], 100%.
Take `COCCN(C(=O)CCl)C(=C(C)C)c1ccc(Br)s1`: the Activity stood at 80% in assay [1]; 100% in [2]; 60% in assay [3]; 100% in assay [4]; 60% in assay [5]; 100% in assay [6]. For the same molecule, the Activity worked out at 80% in [7], 100% in assay [8], 100% in assay [9] and 100% in assay [10].
Consider `COCCN(C(=O)CCl)C(=C(C)C)c1ccc(SC)cc1`, for which the Activity in assay [1] stood at 100%; in assay [2], 100%; in assay [3] it was 0%; in assay [4], 100%; in [5], 0%; in assay [6] it was 100%. The Activity in assay [7] came to 60%; in assay [8] it was 100%; in assay [9], 40%; in [10], 100%.
Consider `COCCN(C(=O)CCl)C(=C(C)C)c1ccc(C)cc1C`, for which the Activity in assay [1] came to 0%; in [2], 80%; in assay [3], 0%; in [4] it was 100%; in assay [5], 80%; in assay [6] it was 100%. Further, the Activity in assay [7] amounted to 80%; in [8] it was 100%; in assay [9] it was 60%; in assay [10] it was 100%.
With `CCCCCOCCN(C(=O)CCl)C(=C(C)C)c1ccccc1`, the Activity is 80% in assay [2]; 0% in [4]; 60% in [6]; 80% in assay [8]; 80% in [10].
With `COCCN(C(=O)CCl)C(=C(C)C)c1ccc(Br)cc1`, the Activity in [1] stood at 80%; in assay [2], 100%; in assay [3], 100%; in assay [4], 100%; in assay [5], 80%; in assay [6], 100%. In addition, the Activity in assay [7], in assay [8], in assay [9] and in assay [10] was 100% throughout.
`C=C(c1ccccc1)N(CCOC)C(=O)CCl`: the Activity was found to be 80% in assay [2]; 40% in assay [4]; 60% in assay [6]; 80% in assay [8]; 100% in assay [10].
With `CCOC(CN(C(=O)CCl)C(=C(C)C)c1ccccc1)OCC`, the Activity in [2] was determined as 100%; in assay [3], 0%; in assay [4], 100%; in assay [5] it was 0%; in [6], 100%; in assay [7], 40%. Besides, the Activity in [8] is 100%; in [9], 0%; in assay [10] it was 100%.
Turning to `COCCN(C(=O)CCl)C(=C(C)C)c1ccc(OC)c(OC)c1`, the Activity in assay [2] was 100%; in assay [3] it was 60%; in assay [4], 100%; in [5], 60%; in assay [6], 100%; in assay [7] it was 80%. The Activity in assay [8] is given as 100%; in assay [9], 80%; in assay [10] it was 100%.
With `CC(C)=C(c1ccccc1)N(CCCOC(C)C)C(=O)CCl`, the Activity in [2], in assay [4], in assay [6], in [8] and in assay [10] was 100% each time.
For `COCCN(C(=O)CCl)C(=C(C)C)c1cc(C(C)C)ccc1C`, the Activity amounted to 100% in [2]; 0% in assay [3]; 100% in assay [4]; 0% in assay [5]; 100% in assay [6]; 0% in assay [7]. The Activity in [8] is recorded as 100%; in [9], 60%; in assay [10] it was 100%.
Consider `COC(=O)C(C)N(C(=O)CCl)C(=C(C)C)c1ccccc1` (centres undefined), for which the Activity worked out at 80% in assay [2]; 80% in assay [4]; 100% in [6]; 80% in [8]; 100% in [10].
As for `CCCOCCN(C(=O)CCl)C(=C(C)C)c1ccccc1`, the Activity came to 100% in assay [2]; 100% in assay [3]; 100% in assay [4]; 80% in assay [5]; 100% in assay [6]; 100% in assay [7]. The Activity in assay [8], in assay [9] and in assay [10] was 100% each time.
For `CCOC(=O)C(CC)N(C(=O)CCl)C(=C(C)C)c1ccccc1` (centres undefined), the Activity came to 80% in assay [2]; 40% in [4]; 60% in [6]; 40% in assay [8]; 80% in assay [10].
For the molecule `COCCN(C(=O)CCl)C(=C(C)C)c1ccc(C)o1`, the Activity in [2], in assay [4], in assay [6], in assay [8] and in [10] was 100% each time.
For `CCOC(=O)C(C)N(C(=O)CCl)C(=C(C)C)c1ccccc1` (centres undefined), the Activity in assay [2], in assay [4], in [6], in assay [8] and in [10] was 100% each time.
As to `CCCCOCN(C(=O)CCl)c1c(CC)cccc1CC` [BUTACHLOR], the Activity in assay [2], in assay [4], in assay [6], in assay [8] and in [10] was 100% each time.
In the case of `CCOC(=O)CN(C(=O)CCl)C(=C(C)C)c1ccccc1`, the Activity in assay [2] amounted to 80%; in assay [4], 40%; in [6] it was 40%; in assay [8], 80%; in [10], 100%.
As for `COC=C(c1ccccc1)N(CCOC)C(=O)CCl`, the Activity in [2] turned out to be 0%; in assay [4], 0%; in assay [6], 40%; in [8], 60%; in assay [10] it was 100%.
Turning to `CC(C)=C(c1ccccc1)N(CCOCC(F)(F)F)C(=O)CCl`, the Activity in assay [2] was found to be 60%; in [4], 60%; in assay [6] it was 80%; in assay [8] it was 100%; in assay [10], 100%.
For the molecule `COCCN(C(=O)CCl)C(=C(C)C)c1cccc2ccccc12`, the Activity in [2] was found to be 60%; in assay [4], 60%; in assay [6], 60%; in assay [8] it was 80%; in assay [10], 100%.
Take `CC(C)=C(c1ccccc1)N(CCOC/C=C/c1ccccc1)C(=O)CCl`: the Activity stood at 0% in assay [2]; 0% in assay [4]; 40% in [6]; 0% in assay [8]; 20% in assay [10].
Regarding `COCCN(C(=O)CCl)C(=C(C)C)c1ccccc1OC`, the Activity in assay [1] was found to be 0%; in assay [3], 0%; in assay [4], 100%; in assay [5] it was 0%; in [6], 100%; in assay [7], 0%. The values for the Activity in [8], in assay [9] and in [10] were 80%, 0% and 100%, respectively.
For `COCCN(C(=O)CCl)C(=C(C)C)c1ccco1`, the Activity in assay [2] was 100%; in [3], 0%; in assay [4], 100%; in assay [5], 40%; in assay [6], 100%; in [7], 20%. Moreover, the Activity in assay [8], in [9] and in assay [10] was 100% throughout.
Turning to `C/C=C/COCCN(C(=O)CCl)C(=C(C)C)c1ccccc1`, the Activity in assay [2] was determined as 80%; in assay [4] it was 100%; in assay [6], 100%; in [8] it was 100%; in assay [10], 100%.
In the case of `CSCCN(C(=O)CCl)C(=C(C)C)c1ccccc1`, the Activity in assay [2] stood at 0%; in assay [4], 0%; in assay [6] it was 20%; in [8], 0%; in [10], 60%.
Regarding `CCCCC=C(c1ccccc1)N(CCOC)C(=O)CCl`, the Activity in assay [2] is 80%; in [4] it was 100%; in assay [6], 100%; in assay [8], 80%; in [10], 80%.
